Laboratory results reported in patent US20240066086A1, “Topical Hyperpigmentation Compositions and Method of Use” (Allergan Sales, LLC, priority 2022, published 2024).

Legend:
Format in all cases: cell-based
[1] = test system: human melanoma cell line MNT-1 cells; assay: in vitro melanogenesis / melanin production in MNT-1 cells
Method: In the MNT-1 cell in vitro tests, neferine and liensinine reduced melanin production after seven days by at least 50%, 60%, 70%, 80% or greater at concentrations ranging from 0.1 μM to 5 μM.

primary human melanocyes = assay: in vitro melanogenesis in primary melanocytes
[2] = test system: 3-D dark pigmented epidermis model Melanoderm™ MEL0300B tissue; assay: in vitro melanogenesis in 3-D pigmented epidermis model

Measured: inhibition of melanogenesis

COc1ccc(C[C@@H]2c3cc(Oc4cc(C[C@@H]5c6cc(OC)c(OC)cc6CCN5C)ccc4O)c(OC)cc3CCN2C)cc1 [Neferine, neferine]
significantly inhibit melanogenesis: all assays above

COc1cc2c(cc1OC)[C@@H](Cc1ccc(O)c(Oc3cc4c(cc3OC)CCN(C)[C@@H]4Cc3ccc(O)cc3)c1)N(C)CC2 [liensinine]
significantly inhibit melanogenesis: all assays above
